From patent US20110124700A1, “SYSTEMS AND METHODS OF CANCER STAGING AND TREATMENT” (priority 2008, published 2011)

Experiments:
Assay in all cases: sunitinib treatment, viability of NSCLC cell line (IC50)
[1] = tested on: H1703; type: cell-based
[2] = tested on: H520; type: cell-based
[3] = tested on: H358; type: cell-based
[4] = tested on: A549; type: cell-based
[5] = tested on: H157; type: cell-based
[6] = tested on: H322C

- IC50 ([1]; Homo sapiens, NCI-H1703, H1703 cell line, sunitinib): < 0.5 µM
- IC50 ([2]; Homo sapiens, NCI-H520, H520 cell line, sunitinib): 1 to 3 µM
- IC50 ([3]; Homo sapiens, NCI-H358, H358 cell line, sunitinib): > 10 µM
- IC50 ([4]; Homo sapiens, A549 cell line, sunitinib): > 10 µM
- IC50 ([5]; Homo sapiens, NCI-H157, H157 cell line, sunitinib): > 10 µM
- IC50 [6]: 9 to 10 µM
SMILES: CCN(CC)CCNC(=O)c1c(C)[nH]c(/C=C2\C(=O)Nc3ccc(F)cc32)c1C [sunitinib, N-[2-(diethylamino)ethyl]-5-[(Z)-(5-fluoro-1,2-dihydro-2-oxo-3H-indol-3-ylidine)methyl]-2,4-dimethyl-1H-pyrrole-3-carboxamide]
- sensitivity of cell line to sunitinib ([1]; untransfected H1703): sensitive (sunitinib sensitive (defined solely for the purposes of this example as having an IC50<3 μM))
- sensitivity of cell line to sunitinib ([2]; untransfected H520): sensitive (sunitinib sensitive (defined solely for the purposes of this example as having an IC50<3 μM))
- sensitivity of cell line to sunitinib ([3]; untransfected H358): resistant (sunitinib resistant (defined solely for the purposes of this example as having IC50>9 μM))
- sensitivity of cell line to sunitinib ([4]; untransfected A549): resistant (sunitinib resistant (defined solely for the purposes of this example as having IC50>9 μM))
- sensitivity of cell line to sunitinib ([5]; untransfected H157): resistant (sunitinib resistant (defined solely for the purposes of this example as having IC50>9 μM))
- sensitivity of cell line to sunitinib ([6]; untransfected H322C): resistant (sunitinib resistant (defined solely for the purposes of this example as having IC50>9 μM))
